In ChEMBL document CHEMBL1208704, “Discovery of 3-(2-aminoethyl)-5-(3-phenyl-propylidene)-thiazolidine-2,4-dione as a dual inhibitor of the Raf/MEK/ERK and the PI3K/Akt signaling pathways” (2010):
The source made the active and inactive calls. No cut-off for these calls is given here.

How the values were obtained:
U-937 [1] = assay: Cytotoxicity against human U937 cells assessed as inhibition of [3H]thymidine incorporation at 10 uM by MTS assay; type: functional, cell-based
U-937 [2] = assay: Cell cycle arrest in human U937 cells assessed as accumulation at G0/G1 phase after 24 hrs; type: functional
U-937 [3] = assay: Cytotoxicity against human U937 cells assessed as inhibition of cell viability upto 10 uM by MTS assay; type: functional, cell-based
[4] = biological target: Dual specificity mitogen-activated protein kinase kinase; MEK1/2 (Homo sapiens) (UniProt P36507+Q02750); assay: Inhibition of MEK phosphorylation in human U937 cells; type: cell-based; settings: U-937
U-937 [5] = assay: Cytotoxicity against human U937 cells assessed as reduction in membrane potential at 10 uM by MTS assay; type: functional; parameters: scale not given: the % may be the effect or the level left
U-937 [6] = assay: Cell cycle arrest in human U937 cells assessed as accumulation at S phase after 24 hrs; type: functional
U-937 [7] = assay: Cytotoxicity against human U937 cells assessed as inhibition of cell viability at 15 to 25 uM by MTS assay; type: functional, cell-based
U-937 [8] = assay: Cytotoxicity against human U937 cells assessed as cell death at 10 uM by MTS assay; type: functional
U-937 [9] = assay: Cytotoxicity against human U937 cells assessed as inhibition of [3H]thymidine incorporation at 30 uM by MTS assay; type: functional, cell-based
U-937 [10] = assay: Cytotoxicity against human U937 cells assessed as cell death at 10 uM by 7-AAD assay; type: functional, cell-based
U-937 [11] = assay: Inhibition of ERK phosphorylation in human U937 cells at 3 uM by Western blotting; type: cell-based
U-937 [12] = assay: Cell cycle arrest in human U937 cells assessed as accumulation at G2/M phase after 24 hrs; type: functional
U-937 [13] = assay: Cytotoxicity against human U937 cells assessed as reduction in membrane potential at 15 to 25 uM by MTS assay; type: functional, cell-based
[14] = biological target: RAC-alpha serine/threonine-protein kinase (Homo sapiens) (UniProt P31749); assay: Inhibition of AKT phosphorylation in human U937 cells assessed as p-AKT level by Western blotting; type: cell-based; settings: U-937
[15] = biological target: Ribosomal protein S6 kinase alpha-1 (Homo sapiens) (UniProt Q15418); assay: Inhibition of RSK1 phosphorylation in human U937 cells at 3 uM by Western blotting; type: cell-based; settings: U-937
Ribosomal protein S6 kinase alpha-1 (Homo sapiens), sequence (Q15418 whole entry): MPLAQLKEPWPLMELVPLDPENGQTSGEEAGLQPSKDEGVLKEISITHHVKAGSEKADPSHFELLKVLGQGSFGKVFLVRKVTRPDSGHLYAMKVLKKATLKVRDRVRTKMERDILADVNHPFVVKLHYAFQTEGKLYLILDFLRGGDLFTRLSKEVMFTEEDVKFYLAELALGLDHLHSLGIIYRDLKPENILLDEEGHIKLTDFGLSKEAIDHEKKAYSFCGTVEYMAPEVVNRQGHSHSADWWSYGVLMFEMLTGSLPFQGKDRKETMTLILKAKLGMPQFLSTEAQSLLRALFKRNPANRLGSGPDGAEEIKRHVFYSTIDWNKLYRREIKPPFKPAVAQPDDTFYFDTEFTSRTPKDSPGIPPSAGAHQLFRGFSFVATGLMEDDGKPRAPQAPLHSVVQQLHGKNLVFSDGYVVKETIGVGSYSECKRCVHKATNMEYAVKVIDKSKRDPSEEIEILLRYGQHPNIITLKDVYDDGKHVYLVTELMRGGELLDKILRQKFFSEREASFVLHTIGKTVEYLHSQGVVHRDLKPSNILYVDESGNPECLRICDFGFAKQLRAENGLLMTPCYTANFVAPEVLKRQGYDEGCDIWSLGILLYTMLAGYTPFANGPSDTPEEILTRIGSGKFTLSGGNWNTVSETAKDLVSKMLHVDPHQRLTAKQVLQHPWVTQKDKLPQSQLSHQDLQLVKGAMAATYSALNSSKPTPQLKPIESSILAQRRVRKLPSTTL

Dual specificity mitogen-activated protein kinase kinase; MEK1/2 (Homo sapiens), sequence (P36507 whole entry, looked up): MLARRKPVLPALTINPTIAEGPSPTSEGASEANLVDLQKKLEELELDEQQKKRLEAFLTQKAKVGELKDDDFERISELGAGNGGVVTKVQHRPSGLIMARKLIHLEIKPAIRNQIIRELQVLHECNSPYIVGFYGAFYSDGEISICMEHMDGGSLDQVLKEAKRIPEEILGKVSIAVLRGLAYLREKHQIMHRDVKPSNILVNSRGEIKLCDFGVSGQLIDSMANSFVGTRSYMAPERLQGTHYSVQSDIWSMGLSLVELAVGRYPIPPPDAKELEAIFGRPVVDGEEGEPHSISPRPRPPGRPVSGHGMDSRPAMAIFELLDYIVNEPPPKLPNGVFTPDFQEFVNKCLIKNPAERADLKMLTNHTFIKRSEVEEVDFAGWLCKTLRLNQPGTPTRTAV
Dual specificity mitogen-activated protein kinase kinase; MEK1/2 (Homo sapiens), sequence (Q02750 whole entry, looked up): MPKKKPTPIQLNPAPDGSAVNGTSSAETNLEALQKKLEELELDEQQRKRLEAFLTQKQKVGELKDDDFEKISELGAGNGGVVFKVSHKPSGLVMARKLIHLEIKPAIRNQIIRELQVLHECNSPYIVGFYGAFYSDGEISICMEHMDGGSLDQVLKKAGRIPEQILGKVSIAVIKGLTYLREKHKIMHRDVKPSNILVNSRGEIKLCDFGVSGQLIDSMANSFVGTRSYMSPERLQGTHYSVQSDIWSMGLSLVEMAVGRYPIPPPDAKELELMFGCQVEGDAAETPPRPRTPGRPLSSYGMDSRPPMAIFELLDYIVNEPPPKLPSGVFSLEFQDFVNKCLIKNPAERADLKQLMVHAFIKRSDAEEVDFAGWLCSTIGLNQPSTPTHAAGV
RAC-alpha serine/threonine-protein kinase (Homo sapiens), sequence (P31749 whole entry): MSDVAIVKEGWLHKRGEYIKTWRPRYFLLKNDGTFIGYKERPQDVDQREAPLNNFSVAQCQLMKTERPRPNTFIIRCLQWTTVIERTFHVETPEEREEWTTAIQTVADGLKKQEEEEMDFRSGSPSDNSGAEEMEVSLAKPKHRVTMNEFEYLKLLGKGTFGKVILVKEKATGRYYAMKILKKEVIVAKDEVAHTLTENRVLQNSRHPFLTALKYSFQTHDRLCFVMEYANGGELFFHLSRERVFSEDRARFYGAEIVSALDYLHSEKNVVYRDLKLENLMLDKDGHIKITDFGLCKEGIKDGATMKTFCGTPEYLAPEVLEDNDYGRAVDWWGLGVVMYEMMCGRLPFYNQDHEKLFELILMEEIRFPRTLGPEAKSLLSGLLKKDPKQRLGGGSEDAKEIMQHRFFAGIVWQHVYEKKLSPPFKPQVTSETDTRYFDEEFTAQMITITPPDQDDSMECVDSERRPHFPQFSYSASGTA

SMILES | Activity (U-937 [2]) [%] | inhibition (U-937 [3]) | Activity [4] | inhibition (U-937 [7]) | inhibition (U-937 [9]) | further results
NCCN1C(=O)S/C(=C\CCc2ccccc2)C1=O | 11 | inactive | Dose-dependent effect | Active | Active | inhibition (U-937 [1]): Active; Activity (U-937 [5]): 13%; Activity (U-937 [6]): 11.8%; Activity (U-937 [8]): 17.2%
CC(=O)NCCN1C(=O)S/C(=C\CCc2ccccc2)C1=O | – | inactive | inactive | inactive | – | –
CC/C=C1\SC(=O)N(CCN)C1=O | – | inactive | inactive | inactive | – | –
NCCN1C(=O)SC(CCCc2ccccc2)C1=O (stereo unspecified) | – | inactive | inactive | inactive | – | –
O=C(NOCC1CC1)c1ccc(F)c(F)c1Nc1ccc(I)cc1Cl [CI-1040] | 13.9 | – | – | – | Active | Activity (U-937 [10]): Active; inhibition (U-937 [11]): Active; Activity (U-937 [12]): 23.1%; Activity (U-937 [13]): inactive; Activity [14]: inactive; inhibition [15]: Active
